Reference: ChEMBL document CHEMBL3804771, “De novo design of helical peptides to inhibit tumor necrosis factor- by disrupting its trimer formation” (Medchemcomm, 2016)
Active and inactive are the calls of the source. No cut-off for these calls is given here.

Assays:
[1] = Cytotoxicity against HEK293T cells assessed as cell death at 30 uM after 24 hrs by CCK8 assay; format: cell-based; details: human, hek-293t
Tumor necrosis factor [2] = target: T1, Tumor necrosis factor (Homo sapiens, UniProt P01375); assay: Binding affinity to human TNFalpha expressed in Escherichia coli by surface plasmon resonance method
Tumor necrosis factor [3] = target: T1, Tumor necrosis factor; assay: Inhibition of human TNFalpha induced NFkappaB activation in HEK293T cells after 6 hrs by dual-glo luciferase assay; format: cell-based, HEK-293T; details: for inhibition: HEK-293T
[4] = Cytotoxicity against HEK293T cells at >300 uM after 24 hrs by CCK8 assay; format: cell-based; details: human, hek-293t
Tumor necrosis factor [5] = target: T1, Tumor necrosis factor; assay: Inhibition of human TNFalpha expressed in Escherichia coli assessed as decrease in TNF-alpha trimer level after 15 mins by SDS-PAGE analysis
Tumor necrosis factor [6] = target: T1, Tumor necrosis factor; assay: Inhibition of human TNFalpha expressed in Escherichia coli assessed as increase in TNF-alpha dimer level after 15 mins by SDS-PAGE analysis
Tumor necrosis factor [7] = target: T1, Tumor necrosis factor; assay: Inhibition of human TNFalpha expressed in Escherichia coli assessed as increase in TNFalpha monomer level after 15 mins by SDS-PAGE analysis
Tumor necrosis factor [8] = target: T1, Tumor necrosis factor; assay: Inhibition of human TNFalpha expressed in Escherichia coli assessed as trimer to dimer transition at 5 uM measured after 12 hrs by mass spectrometry

T1 sequence (P01375 whole entry): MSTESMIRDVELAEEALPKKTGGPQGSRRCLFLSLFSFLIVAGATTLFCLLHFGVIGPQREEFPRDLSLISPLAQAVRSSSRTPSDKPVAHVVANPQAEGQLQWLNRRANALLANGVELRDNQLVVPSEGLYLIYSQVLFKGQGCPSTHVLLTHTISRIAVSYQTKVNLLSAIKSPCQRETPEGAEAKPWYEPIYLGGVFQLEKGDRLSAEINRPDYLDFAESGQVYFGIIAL

| Compound | mortality [1] | Kd (Tumor necrosis factor [2]) | IC50 (Tumor necrosis factor [3]) | Activity [4] | inhibition (Tumor necrosis factor [5]) | inhibition (Tumor necrosis factor [6]) | inhibition (Tumor necrosis factor [3]) | inhibition (Tumor necrosis factor [7]) | inhibition (Tumor necrosis factor [8]) |
| --- | --- | --- | --- | --- | --- | --- | --- | --- | --- |
| Cc1cc2occ(CN(C)CCN(C)Cc3cn(-c4cccc(C(F)(F)F)c4)c4ccccc34)c(=O)c2cc1C | 50% |  |  |  |  |  |  |  |  |
| CC[C@H](C)[C@H](NC(=O)[C@H](CCC(N)=O)NC(=O)[C@H](CCC(N)=O)NC(=O)[C@H](Cc1ccccc1)NC(=O)[C@H](CCC(=O)O)NC(=O)[C@H](CCC(N)=O)NC(=O)[C@@H](NC(=O)[C@H](CCC(=O)O)NC(=O)[C@H](CCC(N)=O)NC(=O)[C@H](Cc1c[nH]c2ccccc12)NC(=O)[C@H](CC(N)=O)NC(=O)[C@H](CCCNC(=N)N)NC(=O)[C@H](CCCCN)NC(=O)[C@H](CC(C)C)NC(=O)[C@H](CCC(=O)O)NC(=O)[C@H](CC(=O)O)NC(=O)[C@H](CCC(=O)O)NC(=O)[C@H](C)NC(=O)[C@@H](N)CC(=O)O)[C@@H](C)CC)C(=O)N[C@@H](CC(C)C)C(=O)N[C@@H](CCC(N)=O)C(=O)N[C@@H](CCSC)C(=O)N[C@@H](Cc1ccccc1)C(=O)N[C@@H](Cc1ccccc1)C(=O)N[C@@H](CCC(=O)O)C(=O)N[C@@H](Cc1c[nH]c2ccccc12)C(=O)N[C@@H](Cc1c[nH]c2ccccc12)C(=O)N[C@@H](CCC(N)=O)C(=O)N[C@@H](CCCCN)C(=O)N[C@@H](CC(=O)O)C(=O)O |  | 390 nM | 11900 nM | Non-toxic |  |  |  |  |  |
| CC[C@@H](C)[C@@H](NC(=O)[C@@H](CCC(N)=O)NC(=O)[C@@H](CCC(N)=O)NC(=O)[C@@H](Cc1ccccc1)NC(=O)[C@@H](CCC(=O)O)NC(=O)[C@@H](CCC(N)=O)NC(=O)[C@H](NC(=O)[C@@H](CCC(=O)O)NC(=O)[C@@H](CCC(N)=O)NC(=O)[C@H](Cc1c[nH]c2ccccc12)NC(=O)[C@H](CC(N)=O)NC(=O)[C@H](CCCNC(=N)N)NC(=O)[C@H](CCCCN)NC(=O)[C@H](CC(C)C)NC(=O)[C@H](CCC(=O)O)NC(=O)[C@H](CC(=O)O)NC(=O)[C@H](CCC(=O)O)NC(=O)[C@H](C)NC(=O)[C@H](N)CC(=O)O)[C@@H](C)CC)C(=O)N[C@H](CC(C)C)C(=O)N[C@H](CCC(N)=O)C(=O)N[C@H](CCSC)C(=O)N[C@H](Cc1ccccc1)C(=O)N[C@H](Cc1ccccc1)C(=O)N[C@H](CCC(=O)O)C(=O)N[C@H](Cc1c[nH]c2ccccc12)C(=O)N[C@@H](Cc1c[nH]c2ccccc12)C(=O)N[C@@H](CCC(N)=O)C(=O)N[C@H](CCCCN)C(=O)N[C@@H](CC(=O)O)C(=O)O |  |  |  |  | Active | Active | Dose-dependent effect | Active | Active |
| CC[C@@H](C)[C@H](NC(=O)[C@H](CCC(=O)O)NC(=O)[C@H](CCC(N)=O)NC(=O)[C@@H](Cc1c[nH]c2ccccc12)NC(=O)[C@@H](CC(N)=O)NC(=O)[C@@H](CCCNC(=N)N)NC(=O)[C@@H](CCCCN)NC(=O)[C@@H](CC(C)C)NC(=O)[C@@H](CCC(=O)O)NC(=O)[C@@H](CC(=O)O)NC(=O)[C@@H](CCC(=O)O)NC(=O)[C@@H](C)NC(=O)[C@@H](N)CC(=O)O)C(=O)N[C@@H](CCC(N)=O)C(=O)N[C@@H](CCC(=O)O)C(=O)N[C@@H](C)C(=O)N[C@@H](CCC(N)=O)C(=O)N[C@@H](CCC(N)=O)C(=O)N[C@H](C(=O)N[C@@H](CC(C)C)C(=O)N[C@@H](CCC(N)=O)C(=O)N[C@@H](CCSC)C(=O)N[C@@H](Cc1ccccc1)C(=O)N[C@@H](Cc1ccccc1)C(=O)N[C@@H](CCC(=O)O)C(=O)N[C@@H](Cc1c[nH]c2ccccc12)C(=O)N[C@H](Cc1c[nH]c2ccccc12)C(=O)N[C@H](CCC(N)=O)C(=O)N[C@@H](CCCCN)C(=O)N[C@H](CC(=O)O)C(=O)O)[C@@H](C)CC |  |  |  |  |  |  | inactive |  |  |
| CC[C@@H](C)[C@H](NC(=O)[C@H](CCC(N)=O)NC(=O)[C@H](CCC(N)=O)NC(=O)[C@H](Cc1ccccc1)NC(=O)[C@H](CCC(=O)O)NC(=O)[C@H](CCC(N)=O)NC(=O)[C@@H](NC(=O)[C@H](CCC(=O)O)NC(=O)[C@H](CCC(N)=O)NC(=O)[C@@H](Cc1c[nH]c2ccccc12)NC(=O)[C@H](CC(N)=O)NC(=O)[C@H](CCCNC(=N)N)NC(=O)[C@H](CCCCN)NC(=O)[C@H](CC(C)C)NC(=O)[C@H](CCC(=O)O)NC(=O)[C@H](CC(=O)O)NC(=O)[C@H](CCC(=O)O)NC(=O)[C@H](C)NC(=O)[C@H](N)CC(=O)O)[C@@H](C)CC)C(=O)N[C@@H](C)C(=O)N[C@@H](CCC(N)=O)C(=O)N[C@@H](CCSC)C(=O)N[C@@H](Cc1ccccc1)C(=O)N[C@@H](Cc1ccccc1)C(=O)N[C@@H](CCC(=O)O)C(=O)N[C@@H](Cc1c[nH]c2ccccc12)C(=O)N[C@@H](Cc1c[nH]c2ccccc12)C(=O)N[C@@H](CCC(N)=O)C(=O)N[C@H](CCCCN)C(=O)N[C@@H](CC(=O)O)C(=O)O |  |  |  |  |  |  | inactive |  |  |
| H-DAEDELKRNWQAIQEFQQILQMFFEWWQKD-OH |  |  |  |  |  |  | inactive |  |  |
| H-LREQRLKEHLQEIQIFEQWLQIFQEQFQKF-OH |  | 500 nM |  | Non-toxic |  |  | inactive |  |  |
| H-QEKWFAEQYARMVLEWIEKELKESL-OH |  | 500 nM | 20700 nM | Non-toxic | Active | Active | Dose-dependent effect | Active | Active |
| H-RQQEELYKKWLQEFWKWFQIALQLD-OH |  | 500 nM | 32600 nM | Non-toxic | Active | Active | Dose-dependent effect | Active | Active |
| H-SEQELKQIFQQVFQWWQLWEQFEKQ-OH |  |  |  |  | Active | Active |  | Active | Active |
